Series [1] has as its system bicistronic HCV replicon (replicon RNA, GenBank Accession No. AJ242654). Description: HCV Replicon Assay. The series is classed as cell-based. As to conditions: Hepatitis C virus, 72 h, read-out: Replicon IC50. A general note: Replicon systems follow genome replication, usually without infectious particles.

Data on 25 compounds can be found in patent US8735414B2 (priority 2009, dated 2014).

The pIC50 is −log10 of the IC50, conventionally taken in molar units. Broadly, the melting point is the temperature of the solid-liquid transition.

SMILES strings stand for the structures. pIC50: −log10 of the molar value.

Take `Cc1ccc(-n2c(-c3ccc(S(=O)(=O)N[C@@H](C)C(F)(F)F)cn3)c(C#N)c3cc(F)c(C)cc32)nc1` [compound 885, 6-[3-cyano-5-fluoro-6-methyl-1-(5-methylpyridin-2-yl)-1H-indol-2-yl]-N-[(2S)-1,1,1-trifluoropropan-2-yl]pyridine-3-sulfonamide]: the melting point fell in the range of 250 to 254 °C. Besides, in series [1], the pIC50 is over 6.30.
The matching figures for `Cc1ccnc(-n2c(-c3ccc(S(=O)(=O)N[C@@H](C)C(F)(F)F)cn3)c(C#N)c3cc(F)c(C)cc32)c1` [compound 886, 6-[3-cyano-5-fluoro-6-methyl-1-(4-methylpyridin-2-yl)-1H-indol-2-yl]-N-[(2S)-1,1,1-trifluoropropan-2-yl]pyridine-3-sulfonamide]: 200 to 204 °C and over 6.30.
The matching figures for `CCc1cc2c(cc1F)c(C#N)c(-c1ccc(S(=O)(=O)N[C@@H](C)C(F)(F)F)c(C)n1)n2-c1ccccn1` [compound 887, 6-[3-cyano-6-ethyl-5-fluoro-1-(pyridin-2-yl)-1H-indol-2-yl]-2-methyl-N-[(2S)-1,1,1-trifluoropropan-2-yl]pyridine-3-sulfonamide]: 219 to 224 °C and over 6.30.
The matching figures for `Cc1cc2c(cc1F)c(C#N)c(-c1ncc(S(=O)(=O)N[C@@H](C)C(F)(F)F)cc1C)n2-c1ncccn1` [compound 888, 6-[3-cyano-5-fluoro-6-methyl-1-(pyrimidin-2-yl)-1H-indol-2-yl]-5-methyl-N-[(2S)-1,1,1-trifluoropropan-2-yl]pyridine-3-sulfonamide]: 201 to 204 °C and over 6.30.
As for `Cc1cc2c(cc1F)c(C#N)c(-c1ncc(S(=O)(=O)N[C@@H](C)C(F)(F)F)cc1C)n2-c1ccccn1` [compound 889, 6-[3-cyano-5-fluoro-6-methyl-1-(pyridin-2-yl)-1H-indol-2-yl]-5-methyl-N-[(2S)-1,1,1-trifluoropropan-2-yl]pyridine-3-sulfonamide], the melting point fell in the range of 197 to 202 °C. Further, the pIC50 in series [1] is over 6.30.
Compound `CCc1cc2c(cc1F)c(C#N)c(-c1cc(C)c(S(=O)(=O)N[C@H](C)C(F)(F)F)cn1)n2-c1ncccn1` [compound 890, 6-[3-cyano-6-ethyl-5-fluoro-1-(pyrimidin-2-yl)-1H-indol-2-yl]-4-methyl-N-[(2R)-1,1,1-trifluoropropan-2-yl]pyridine-3-sulfonamide] yielded a melting point of 231 to 236 °C. The pIC50 in series [1] was over 6.30.
The matching figures for `CCc1cc2c(cc1F)c(C#N)c(-c1cc(C)c(S(=O)(=O)N[C@H](C)C(F)(F)F)cn1)n2-c1ccccn1` [compound 891, 6-[3-cyano-6-ethyl-5-fluoro-1-(pyridin-2-yl)-1H-indol-2-yl]-4-methyl-N-[(2R)-1,1,1-trifluoropropan-2-yl]pyridine-3-sulfonamide]: 178 to 183 °C and over 6.30.
The matching figures for `Cc1cc2c(cc1F)c(C#N)c(-c1ccc(S(=O)(=O)N[C@@H](C)C(F)(F)F)cn1)n2-c1cccnn1` [compound 892, 6-[3-cyano-5-fluoro-6-methyl-1-(pyridazin-3-yl)-1H-indol-2-yl]-N-[(2S)-1,1,1-trifluoropropan-2-yl]pyridine-3-sulfonamide]: 245 to 250 °C and over 6.30.
On the same counts, the results for `Cc1cc2c(cc1F)c(C#N)c(-c1ccc(S(=O)(=O)N[C@@H](C)C(F)(F)F)cn1)n2-c1cccnc1` [compound 893, 6-[3-cyano-5-fluoro-6-methyl-1-(pyridin-3-yl)-1H-indol-2-yl]-N-[(2S)-1,1,1-trifluoropropan-2-yl]pyridine-3-sulfonamide] are 217 to 221 °C and over 6.30.
`Cc1cc2c(cc1F)c(C#N)c(-c1ccc(S(=O)(=O)N[C@@H](C)C(F)(F)F)cn1)n2-c1cncnc1` [compound 894, 6-[3-cyano-5-fluoro-6-methyl-1-(pyrimidin-5-yl)-1H-indol-2-yl]-N-[(2S)-1,1,1-trifluoropropan-2-yl]pyridine-3-sulfonamide] showed a melting point of 198 to 202 °C. Also, the pIC50 in series [1] was over 6.30.
On the same counts, the results for `C[C@H](NS(=O)(=O)c1ccc(-c2c(C#N)c3cc(F)c(Br)cc3n2-c2ncccn2)nc1)C(F)(F)F` [compound 895, 6-[6-bromo-3-cyano-5-fluoro-1-(pyrimidin-2-yl)-1H-indol-2-yl]-N-[(2S)-1,1,1-trifluoropropan-2-yl]pyridine-3-sulfonamide] are 224 to 226 °C and over 6.30.
The matching figures for `Cc1cc2c(cc1F)c(C#N)c(-c1ccc(S(=O)(=O)N[C@@H](C)C(F)(F)F)cn1)n2-c1ccncn1` [compound 896, 6-[3-cyano-5-fluoro-6-methyl-1-(pyrimidin-4-yl)-1H-indol-2-yl]-N-[(2S)-1,1,1-trifluoropropan-2-yl]pyridine-3-sulfonamide]: 214 to 219 °C and over 6.30.
On the same counts, the results for `C[C@H](NS(=O)(=O)c1ccc(-c2c(C#N)c3cc(C(F)(F)F)ccc3n2-c2cnccn2)nc1)C(F)(F)F` [compound 897, 6-[3-cyano-1-(pyrazin-2-yl)-5-(trifluoromethyl)-1H-indol-2-yl]-N-[(2S)-1,1,1-trifluoropropan-2-yl]pyridine-3-sulfonamide] are 255 to 258 °C and over 6.30.
With `C[C@H](NS(=O)(=O)c1ccc(-c2c(C#N)c3cc(OC(F)(F)F)ccc3n2-c2cnccn2)nc1)C(F)(F)F` [compound 898, 6-[3-cyano-1-(pyrazin-2-yl)-5-(trifluoromethoxy)-1H-indol-2-yl]-N-[(2S)-1,1,1-trifluoropropan-2-yl]pyridine-3-sulfonamide], the melting point was in the range of 191 to 195 °C. Also, in series [1], the pIC50 is 5.70 to 6.30.
Consider `CCc1cc2c(cc1F)c(C#N)c(-c1ccc(S(=O)(=O)NC(C)(C)C)cn1)n2-c1cnccn1` [compound 899, N-tert-butyl-6-[3-cyano-6-ethyl-5-fluoro-1-(pyrazin-2-yl)-1H-indol-2-yl]pyridine-3-sulfonamide], for which the melting point was 196 to 201 °C. In addition, the pIC50 in series [1] is over 6.30.
The matching figures for `CCc1cc2c(cc1F)c(C#N)c(-c1ccc(S(=O)(=O)NC(C)(C)C)cn1)n2-c1ncccc1F` [compound 900, N-tert-butyl-6-[3-cyano-6-ethyl-5-fluoro-1-(3-fluoropyridin-2-yl)-1H-indol-2-yl]pyridine-3-sulfonamide]: 200 to 203 °C and 5.70 to 6.30.
The matching figures for `Cc1cc2c(C#N)c(-c3ccc(S(=O)(=O)N[C@@H](C)C(F)(F)F)cn3)n(-c3ncccn3)c2cc1F` [compound 901, 6-[3-cyano-6-fluoro-5-methyl-1-(pyrimidin-2-yl)-1H-indol-2-yl]-N-[(2S)-1,1,1-trifluoropropan-2-yl]pyridine-3-sulfonamide]: 125 to 130 °C and over 6.30.
Turning to `Cc1cc2c(cc1F)c(C(N)=O)c(-c1ccc(S(=O)(=O)N[C@@H](C)C(F)(F)F)cn1)n2-c1ncccc1F` [compound 902, 5-fluoro-1-(3-fluoropyridin-2-yl)-6-methyl-2-(5-{[(2S)-1,1,1-trifluoropropan-2-yl]sulfamoyl}pyridin-2-yl)-1H-indole-3-carboxamide], the melting point was in the range of 130 to 138 °C. Further, in series [1], the pIC50 was 5.70 to 6.30.
For `Cc1cc2c(cc1F)cc(-c1ccc(S(=O)(=O)N[C@@H](C)C(F)(F)F)cn1)n2-c1nccs1` [compound 903, 6-[5-fluoro-6-methyl-1-(1,3-thiazol-2-yl)-1H-indol-2-yl]-N-[(2S)-1,1,1-trifluoropropan-2-yl]pyridine-3-sulfonamide], the melting point was in the range of 224 to 230 °C. Also, in series [1], the pIC50 was over 6.30.
The matching figures for `Cc1cnc(-n2c(-c3ccc(S(=O)(=O)N[C@@H](C)C(F)(F)F)cn3)c(C(N)=O)c3cc(F)c(C)cc32)cn1` [compound 904, 5-fluoro-6-methyl-1-(5-methylpyrazin-2-yl)-2-(5-{[(2S)-1,1,1-trifluoropropan-2-yl]sulfamoyl}pyridin-2-yl)-1H-indole-3-carboxamide]: 202 to 208 °C and over 6.30.
The matching figures for `Cc1ccnc(-n2c(-c3ccc(S(=O)(=O)N[C@@H](C)C(F)(F)F)cn3)c(C(N)=O)c3cc(F)c(C)cc32)n1` [compound 905, 5-fluoro-6-methyl-1-(4-methylpyrimidin-2-yl)-2-(5-{[(2S)-1,1,1-trifluoropropan-2-yl]sulfamoyl}pyridin-2-yl)-1H-indole-3-carboxamide]: 205 to 210 °C and over 6.30.
The matching figures for `COc1ccnc(-n2c(-c3ccc(S(=O)(=O)N[C@@H](C)C(F)(F)F)cn3)c(C(N)=O)c3cc(F)c(C)cc32)n1` [compound 906, 5-fluoro-1-(4-methoxypyrimidin-2-yl)-6-methyl-2-(5-{[(2S)-1,1,1-trifluoropropan-2-yl]sulfamoyl}pyridin-2-yl)-1H-indole-3-carboxamide]: 167 to 174 °C and over 6.30.
`CC(=O)c1cc2c(cc1F)c(C#N)c(-c1ccc(S(=O)(=O)N[C@@H](C)C(F)(F)F)cn1)n2-c1ncccn1` [compound 907, 6-[6-acetyl-3-cyano-5-fluoro-1-(pyrimidin-2-yl)-1H-indol-2-yl]-N-[(2S)-1,1,1-trifluoropropan-2-yl]pyridine-3-sulfonamide] yielded a melting point of 220 to 221 °C. Also, the pIC50 in series [1] was over 6.30.
On the same counts, the results for `Cc1cc2c(cc1F)c(C(N)=O)c(-c1ccc(S(=O)(=O)N[C@@H](C)C(F)(F)F)cn1)n2-c1cccnn1` [compound 912, 5-fluoro-6-methyl-1-(pyridazin-3-yl)-2-(5-{[(2S)-1,1,1-trifluoropropan-2-yl]sulfamoyl}pyridin-2-yl)-1H-indole-3-carboxamide] are 176 to 181 °C and 5.30 to 5.70.
With `Cc1cc2c(cc1F)c(C(N)=O)c(-c1ccc(S(=O)(=O)N[C@@H](C)C(F)(F)F)cn1)n2-c1cccnc1` [compound 913, 5-fluoro-6-methyl-1-(pyridin-3-yl)-2-(5-{[(2S)-1,1,1-trifluoropropan-2-yl]sulfamoyl}pyridin-2-yl)-1H-indole-3-carboxamide], the melting point lay within 223 to 227 °C. Besides, in series [1], the pIC50 is over 6.30.
